We go through 22 compounds from patent US7049323B2, “Amidoheterocycles as modulators of the melanocortin-4 receptor” (Bristol-Myers Squibb Company, priority 2003, dated 2006).

T1 sequence (P32245 whole entry): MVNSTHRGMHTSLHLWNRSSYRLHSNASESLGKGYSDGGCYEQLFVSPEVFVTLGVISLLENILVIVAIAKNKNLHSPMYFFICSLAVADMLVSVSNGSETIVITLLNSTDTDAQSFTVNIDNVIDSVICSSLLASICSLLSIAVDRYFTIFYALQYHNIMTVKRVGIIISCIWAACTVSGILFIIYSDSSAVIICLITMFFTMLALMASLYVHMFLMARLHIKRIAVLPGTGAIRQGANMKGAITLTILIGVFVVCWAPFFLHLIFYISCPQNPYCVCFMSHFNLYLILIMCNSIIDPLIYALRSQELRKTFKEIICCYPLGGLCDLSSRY

One experiment deals with male volunteers / patients with psychogenic erectile dysfunction.
Assay: not given
The note with it: intramuscular, 0.005–0.03 mg/kg, three normal male volunteers; cited from earlier work.
In the case of melanotan-II [MT-II], the penile erections result is “caused intermittent non-painful penile erections” and the “period of erections after dosing” value is 1 to 5 h.

Still in this experiment, the particulars now being: subcutaneous, 0.025 mg/kg and 0.1 mg/kg, 10 patients with psychogenic erectile dysfunction; cited from earlier work.
With melanotan-II [MT-II], the erections entry is reported as “caused transient erections”.

Still in this experiment, the particulars now being: subcutaneous, 0.025 mg/kg and 0.1 mg/kg, of 10 patients with psychogenic erectile dysfunction; cited from earlier work.
melanotan-II [MT-II]: the responders was 8.

The same experiment, now with this note: subcutaneous, 0.025 mg/kg and 0.1 mg/kg, patients with psychogenic erectile dysfunction; cited from earlier work.
Consider melanotan-II [MT-II], for which the onset of erections is 50 to 180 min.

A further experiment concerns Rodents (NPY, ob/ob, agouti, fasted feeding models).
Assay: not given
Particulars: injected intracerebroventricularly (ICV); cited from earlier work.
melanotan-II [MT-II]: the food intake entry is reported as “reduced food intake”.

Turning to SHU-9119, the food intake entry is “reverses this effect and can induce hyperphagia”.

A further experiment concerns the target T1, cloned human MC4R receptors (Homo sapiens, UniProt P32245).
T1 construct: expressed in transfected cells; host or cells: Hi5 insect cells or HEK-293 cells (baculovirus/human MC4R receptor construct); membranes
The experiment can be described thus: Melanocortin MC4R membrane binding assay ([125I]NDP-α-MSH competition). The note with it: [125I]NDP-α-MSH 0.1 nM, membranes of Hi5 insect cells or HEK-293 cells, 90 minutes at 37° C. As for the experimental part:
Melanocortin MC4R Binding Assay. […] A membrane binding assay was used to identify competitive ligands of [^125I]NDP-α-MSH binding to cloned human MC4R receptors expressed in Hi5 insect cells or HEK-293 cells transfected by a baculovirus/human MC4R receptor construct. The membrane binding buffer was composed of 25 mM HEPES, pH 7.4, 140 mM NaCl, 1.2 mM MgCl2, 2.5 mM CaCl2, and 0.1% BSA Membrane protein (0.5 μg) and [^125I]-NDP-α-MSH (to a final concentration of 0.1 nM) were added. Competing ligands or a buffer blank were added and incubated for 90 minutes at 37° C. After filtration, the cell membranes were evaluated in a Wallac Microbeta Trilux Scintillation and Luminescence Counter (Model 1450). Dose-response cureves were fitted by […] analyses and IC50 values are calculated using ExcelFit.
As a reminder, the IC50 is the midpoint of a concentration-inhibition curve. A low value points to greater potency. In turn, `CN(C)CCC(=O)N[C@H](Cc1ccc(Cl)cc1)C(=O)N1CC[C@H](N(C=O)C2CCCCC2)C1` [Example 59] gave an IC50 of 1000 to 10000 nM.

The compound `CN(C)CCC(=O)N[C@H](Cc1ccc(Cl)cc1)C(=O)N1CC(N(C(=O)c2ccno2)C2CCCCC2)C1` [Example 6] showed a half-inhibitory concentration (IC50) of 1000 to 10000 nM.

For the compound `NCCC(=O)N[C@H](Cc1ccc(Cl)cc1)C(=O)N1CC[C@H](N(C(=O)c2ccccc2)C2CCCCC2)C1` [Example 27], the IC50 is under 250 nM.

`CC(C)CN(C(=O)c1ccco1)[C@H]1CCN(C(=O)[C@@H](Cc2ccc(Cl)cc2)NC(=O)CCN(C)C)C1` [Example 65] registered an IC50 of 1000 to 10000 nM.

As to `NCCC(=O)N[C@H](Cc1ccc(Cl)cc1)C(=O)N1CC[C@H](N(C=O)C2CCCCC2)C1` [Example 44], the IC50 was 1000 to 10000 nM.

The compound `O=C(N[C@H](Cc1ccc(Cl)cc1)C(=O)N1CCC(N(C(=O)c2ccno2)C2CCCCC2)C1)[C@H]1Cc2ccccc2CN1` (stereo partly drawn) [Example 17] came in with an IC50 of under 250 nM.

For `CCCC(=O)N(C1CCCCC1)C1CN(C(=O)[C@@H](Cc2ccc(Cl)cc2)NC(=O)CCN(C)C)C1` [Example 2], the IC50 was under 250 nM.

In the case of `COCC(=O)N(C1CCCCC1)[C@H]1CCN(C(=O)[C@@H](Cc2ccc(Cl)cc2)NC(=O)CCN)C1` [Example 31], the half-inhibitory concentration (IC50) was 250 to 1000 nM.

The compound `CC(C)C(=O)N(C1CCCCC1)[C@H]1CCN(C(=O)[C@@H](Cc2ccc(Cl)cc2)NC(=O)CCN)C1` [Example 45] gave an IC50 of under 250 nM.

In the case of `CC(C)C(=O)N(C1CCCCC1)[C@H]1CCN(C(=O)[C@@H](Cc2ccc(Cl)cc2)NC(=O)[C@H]2CCN2C)C1` [Example 68], the IC50 lay within 250 to 1000 nM.

For `NCCC(=O)N[C@H](Cc1ccc(Cl)cc1)C(=O)N1CC[C@@H](N(C(=O)c2ccno2)C2CCCCC2)C1` [Example 23], the IC50 was 1000 to 10000 nM.

In turn, `CN(C)CCC(=O)N[C@H](Cc1ccc(Cl)cc1)C(=O)N1CC[C@H](N(C2CCCCC2)S(C)(=O)=O)C1` [Example 56] registered an IC50 of 1000 to 10000 nM.

For `NCCC(=O)N[C@H](Cc1ccc(Cl)cc1)C(=O)N1CC[C@H](N(C(=O)c2cnccn2)C2CCCCC2)C1` [Example 28], the 50% inhibitory concentration (IC50) lay within 250 to 1000 nM.

Compound `CC(C)N(C(=O)c1ccco1)[C@H]1CCN(C(=O)[C@@H](Cc2ccc(Cl)cc2)NC(=O)[C@H]2Cc3ccccc3CN2)C1` [Example 38] came in with a 50% inhibitory concentration (IC50) of 250 to 1000 nM.

For `CC(C)C(=O)N(C1CCCCC1)[C@H]1CCN(C(=O)[C@@H](Cc2ccc(Cl)cc2)NC(=O)[C@@H]2CCN2C)C1` [Example 69], the concentration for half-maximal inhibition (IC50) is under 250 nM.

`CCCCC(=O)N(C1CCCCC1)C1CN(C(=O)[C@@H](Cc2ccc(Cl)cc2)NC(=O)CCN(C)C)C1` [Example 11] returned a half-inhibitory concentration (IC50) of 250 to 1000 nM.

In the case of `NCCC(=O)N[C@H](Cc1ccc(Cl)cc1)C(=O)N1CC[C@H](N(C(=O)c2ccco2)C2CCCCC2)C1` [Example 26], the IC50 is under 250 nM.

Consider `NCCC(=O)N[C@H](Cc1ccc(Cl)cc1)C(=O)N1CC[C@H](N(C(=O)c2ccco2)C2CCCC2)C1` [Example 52], for which the IC50 lay in the range of 1000 to 10000 nM.

Turning to `CN(C)CCC(=O)N[C@H](Cc1ccc(Cl)cc1)C(=O)N1CC(N(C(=O)c2cc3ccccc3s2)C2CCCCC2)C1` [Example 12], the concentration for half-maximal inhibition (IC50) was in the range of 250 to 1000 nM.

`CS(=O)(=O)N(C1CCCCC1)[C@H]1CCN(C(=O)[C@@H](Cc2ccc(Cl)cc2)NC(=O)CCN)C1` [Example 39] showed an IC50 of 250 to 1000 nM.
